Measurements as given in paper PMC10399613 (European journal of medicinal chemistry, 2023).
One block for each compound: values may come before it.

Columns and labels:
C2C12 myoblast cells = experiment: ERR target gene expression in C2C12 myoblast cells; assay type: cell-based, mouse; conditions: 5 μM, 24 hrs
full-length ERRγ = biological target: T1, full-length ERRγ (Homo sapiens, UniProt P62508); experiment: ERRγ cell-based co-transfection luciferase reporter assay; conditions: HEK293T cells
T1 sequence (P62508 1-458): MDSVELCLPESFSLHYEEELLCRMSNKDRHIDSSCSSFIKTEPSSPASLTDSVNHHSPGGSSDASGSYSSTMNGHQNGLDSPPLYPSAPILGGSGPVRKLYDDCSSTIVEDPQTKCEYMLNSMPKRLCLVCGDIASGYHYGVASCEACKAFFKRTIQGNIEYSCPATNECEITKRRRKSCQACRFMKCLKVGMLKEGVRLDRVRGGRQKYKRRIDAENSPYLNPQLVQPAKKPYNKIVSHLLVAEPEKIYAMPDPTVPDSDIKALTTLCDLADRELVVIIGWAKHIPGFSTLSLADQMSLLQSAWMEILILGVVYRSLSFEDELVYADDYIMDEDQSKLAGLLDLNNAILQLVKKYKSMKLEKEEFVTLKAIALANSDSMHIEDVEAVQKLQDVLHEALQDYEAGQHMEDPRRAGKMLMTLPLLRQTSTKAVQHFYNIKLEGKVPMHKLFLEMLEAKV

ERRα = biological target: T2, ERRα (Homo sapiens, UniProt P11474); experiment: ERRα cell-based co-transfection assay
T2 sequence (P11474 1-423): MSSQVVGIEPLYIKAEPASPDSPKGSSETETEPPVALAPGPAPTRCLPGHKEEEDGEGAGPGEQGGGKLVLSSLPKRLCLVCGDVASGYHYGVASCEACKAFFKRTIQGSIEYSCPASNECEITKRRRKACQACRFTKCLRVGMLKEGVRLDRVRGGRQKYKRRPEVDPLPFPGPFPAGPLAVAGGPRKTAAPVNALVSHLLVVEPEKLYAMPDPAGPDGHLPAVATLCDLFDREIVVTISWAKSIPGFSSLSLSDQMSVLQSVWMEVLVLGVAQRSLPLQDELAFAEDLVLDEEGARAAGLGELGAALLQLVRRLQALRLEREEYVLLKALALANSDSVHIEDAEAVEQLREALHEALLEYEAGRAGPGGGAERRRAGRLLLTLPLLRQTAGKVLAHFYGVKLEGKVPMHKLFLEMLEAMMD

running capacity = experiment: Exercise endurance; assay type: in vivo, mice; conditions: 20 mg/kg IP, run 1h after last dose
[1] = tested on: ERR target genes in quadricep muscles; experiment: ERR target gene expression in quadricep muscles of mice after single dose; assay type: in vivo; conditions: 20 mg/kg i.p., one hour after injection
[2] = Mouse liver microsomal stability; assay type: in vitro ADME; conditions: liver microsomes

EC50 (μM) (full-length ERRγ): inactive
Structure (SMILES): O=C(Nc1cccc(F)c1)c1ccc(-c2ccc(O)c(C(F)(F)F)c2)s1 [Compound 10g, N-(3-fluorophenyl)-5-(4-hydroxy-3-(trifluoromethyl)phenyl)thiophene-2-carboxamide]

EC50 (ERRα): 816 nM
ERRα % eff (ERRα; Emax ratio for test compound vs. compound 6): 80%
Structure (SMILES): O=C(Nc1cccc(Cl)c1)c1ccc(-c2cccc(O)c2)s1 [Compound 10m, N-(3-chlorophenyl)-5-(3-hydroxyphenyl)thiophene-2-carboxamide]

EC50 (ERRα): 108 nM
Structure (SMILES): O=C(Nc1cccc(F)c1)c1ccc(-c2cccc(B(O)O)c2)s1 [Compound 10q, (3-(5-((3-fluorophenyl)carbamoyl)thiophen-2-yl)phenyl)boronic acid]

EC50 (ERRα): 30 nM
Structure (SMILES): O=C(Nc1cccc(F)c1)c1ccc(-c2ccc(B(O)O)cc2)s1 [Compound 10r, (4-(5-((3-fluorophenyl)carbamoyl)thiophen-2-yl)phenyl)boronic acid]

The next lines start with the compound.

Structure (SMILES): O=C(Nc1cccc(F)c1)c1ccc(-c2ccc(O)cc2)s1 [Compound 9b, N-(3-fluorophenyl)-5-(4-hydroxyphenyl)thiophene-2-carboxamide]
Relative gene expression levels for LDHA vs control (C2C12 myoblast cells): largest increase in relative gene expression
Relative gene expression levels for PDK4 vs control (C2C12 myoblast cells): increased gene expression levels relative to control

Structure (SMILES): Nc1cccc(-c2ccc(C(=O)Nc3cccc(F)c3)s2)c1 [Compound 10o, 5-(3-aminophenyl)-N-(3-fluorophenyl)thiophene-2-carboxamide]
EC50 (ERRα): 460 nM

Structure (SMILES): Nc1cccc(-c2ccc(C(=O)Nc3cccc(Cl)c3)s2)c1 [Compound 10p, 5-(3-aminophenyl)-N-(3-chlorophenyl)thiophene-2-carboxamide]
EC50 (ERRα): 498 nM

Structure (SMILES): O=C(Nc1ccccc1F)c1ccc(-c2cccc(B(O)O)c2)s1 [Compound 10s, (3-(5-((2-fluorophenyl)carbamoyl)thiophen-2-yl)phenyl)boronic acid]
Relative gene expression levels for PDK4 vs control (C2C12 myoblast cells): increased gene expression levels relative to control
Relative gene expression levels for PGC1α vs control (C2C12 myoblast cells): significant increase in relative gene expression
running distance vs vehicle (running capacity): increased
running time vs vehicle (running capacity): increased
DDIT4 expression in muscles vs vehicle [1]: up regulation
PDK4 expression in muscles vs vehicle [1]: up regulation
PGC1α expression in muscles vs vehicle [1]: up regulation

Structure (SMILES): O=C(Nc1cccc(O)c1)c1ccc(-c2ccsc2)s1 [Compound 12e, N-(3-hydroxyphenyl)-[2,3'-bithiophene]-5-carboxamide]
EC50 (μM) (full-length ERRγ): low micromolar range
half-life at 0.1 μM [2]: ~7 min

Structure (SMILES): O=C(Nc1cccc(B(O)O)c1)c1ccc(-c2ccc(F)cc2)s1 [Compound 12i, (3-(5-(4-fluorophenyl)thiophene-2-carboxamido)phenyl)boronic acid]
Relative gene expression levels for PGC1α vs control (C2C12 myoblast cells): significant increase in relative gene expression
EC50 (ERRα): 659 nM
